Data: patent US20230149318A1, “COMBINATIONS OF NANOPARTICLE-ENCAPSULATED CARGO ENTITIES AND METHODS FOR MAKING AND USING SAME” (Nurevelation, LLC, priority 2021, published 2023)

Columns and labels:
[1] = NMR comparison of CBD before and after encapsulation into nanoparticles (stability); format: physicochemical; conditions: encapsulated CBD (bottom spectrum) relative to non-encapsulated CBD sample (top spectrum), FIG. 3
Description: In some aspects, the cannabinoid in the dispersion can have a purity of at least 90%. In a further aspect, the purity of the cannabinoid in the dispersion ranges from 90-100%. In a still further aspect, the purity of the cannabinoid in the dispersion ranges from 92-97%. In general, the inventors have discovered that the encapsulation process described herein can be improved with the use of a pure cannabinoid starting material (e.g., from 92-97% pure). Similarly, the nanoparticle encapsulated cannabinoid products can advantageously maintain the purity of the cannabinoid over extended periods of time. In some aspects, the purity of the cannabinoid starting material can be maintained once encapsulated for a period of twelve months or longer, e.g., 18 months or longer, or even 24 months or longer. The stable shelf life of the cannabinoid nanoparticles is an advantage over many existing methods for delivering cannabinoid products. In some aspects, the stability of the cannabinoid can be measured using NMR, e.g., by comparing a pre-encapsulated cannabinoid to a cannabinoid extracted from a nanoparticle prepared by a disclosed method.

[2] = dystonia and parkinsonism due to antipsychotics; cited from earlier work

SMILES: C=C(C)[C@@H]1CCC(C)=C[C@H]1c1c(O)cc(CCCCC)cc1O [CBD, cannabidiol]
- stability of CBD after encapsulation into nanoparticles (NMR spectra) [1]: remains intact

SMILES: CN1[C@@H]2CC[C@H]1C[C@@H](OC(c1ccccc1)c1ccccc1)C2 [Benztropine]
- duration of benefits [2]: ≤ 10 h
- time until benefits are seen [2]: ≤ 2 h
